Values joined by “and” are separate entries in the source; they are usually repeats but may differ in a detail not shown here. Identical values can stand only once.
Details: Crystal, Torsion effusion method

[F][Al]([F])[F] [aluminum fluoride]
Details	vapor or sublimation pressure
956 K	0.000105 kPa
960 K	0.000132 kPa
968 K	0.000209 kPa
970 K	0.000209 kPa
974 K	0.000209 kPa
975 K	0.000209 kPa
977 K	0.000263 kPa
982 K	0.000316 kPa
985 K	0.000363 kPa
987 K	0.000363 kPa
991 K	0.000417 kPa and 0.000468 kPa
994 K	0.000468 kPa
998 K	0.000575 kPa
1001 K	0.000631 kPa
1002 K	0.000676 kPa
1007 K	0.000724 kPa
1010 K	0.000813 kPa
1013 K	0.000933 kPa
1014 K	0.000933 kPa
1018 K	0.001122 kPa
1022 K	0.001259 kPa
1023 K	0.001259 kPa
1026 K	0.001413 kPa
1029 K	0.001549 kPa
1033 K	0.00182 kPa
1036 K	0.001862 kPa
1040 K	0.002188 kPa
1043 K	0.002512 kPa
1048 K	0.002754 kPa
1052 K	0.003162 kPa and 0.003236 kPa
1053 K	0.003236 kPa
1059 K	0.00389 kPa
1062 K	0.004467 kPa
1063 K	0.004365 kPa
1066 K	0.005012 kPa
1070 K	0.00537 kPa
1071 K	0.005754 kPa
1074 K	0.00631 kPa
1078 K	0.006918 kPa
1083 K	0.008128 kPa and 0.008318 kPa
1086 K	0.008913 kPa
1089 K	0.009333 kPa
1093 K	0.01072 kPa
1097 K	0.0123 kPa
1098 K	0.01202 kPa
1100 K	0.01288 kPa
1104 K	0.01479 kPa
1107 K	0.01549 kPa
1109 K	0.01698 kPa
1112 K	0.0182 kPa
1113 K	0.01862 kPa

[Cl][Al]([Cl])[Cl] [aluminum chloride]
Details	vapor or sublimation pressure
321 K	0.00017 kPa
323 K	0.000234 kPa
327 K	0.00038 kPa
329 K	0.000525 kPa and 0.000513 kPa
330 K	0.00055 kPa
333 K	0.000676 kPa
334 K	0.000891 kPa
336 K	0.001023 kPa
338 K	0.001622 kPa
339 K	0.001622 kPa and 0.001585 kPa
340 K	0.002089 kPa and 0.001862 kPa
342 K	0.002455 kPa
343 K	0.002951 kPa
344 K	0.003388 kPa
345 K	0.003631 kPa and 0.003715 kPa
346 K	0.003981 kPa
347 K	0.004898 kPa and 0.004266 kPa
348 K	0.004786 kPa and 0.00537 kPa
349 K	0.00631 kPa
350 K	0.006761 kPa
351 K	0.006761 kPa and 0.006457 kPa
352 K	0.008318 kPa
353 K	0.008318 kPa and 0.008913 kPa
354 K	0.01072 kPa and 0.00912 kPa
355 K	0.01202 kPa and 0.01175 kPa
356 K	0.01175 kPa
358 K	0.01445 kPa and 0.01585 kPa
362 K	0.02399 kPa
363 K	0.0263 kPa
366 K	0.03715 kPa
368.5 K	0.04898 kPa
369 K	0.05129 kPa
372 K	0.06918 kPa
373 K	0.08511 kPa
376.5 K	0.1175 kPa
378 K	0.1288 kPa
